Test results: US9409905B2, “Antibacterial compounds and methods for use” (PTC THERAPEUTICS, INC., priority 2011, dated 2016)

Columns and labels:
A. baumannii MXX2240 = experiment: Antibacterial activity, MIC, resistant strain (Table 4); assay type: cell-based; details: Acinetobacter baumannii, MXX2240; resistant A. baumannii MMX2240, multi-drug resistant clinical isolate; read-out: MIC, MMX2240
How it was run: (§1)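 MIC in μg/mL by microbroth dilution, scored as the lowest level that suppresses visible growth.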

K. pneumoniae MXX1232 = experiment: as above; assay type: cell-based; details: Klebsiella pneumoniae, MXX1232; resistant K. pneumoniae MMX1232, multi-drug resistant clinical isolate; read-out: MIC, MMX1232
How it was run: as §1

[1] = system: Staphylococcus aureus (S. aureus) 29213; experiment: Antibacterial activity, microbroth dilution MIC (Table 1); assay type: cell-based; details: microbroth dilution, Gram-positive S. aureus 29213, read-out: MIC, 29213
How it was run: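 Read-out: visual absence of growth. The lowest concentration meeting this gives the MIC, expressed in μg/mL, with microbroth dilution as the method.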

[2] = system: Escherichia coli (E. coli) BAS849; experiment: as above; assay type: cell-based; details: microbroth dilution, super sensitive Gram-negative E. coli BAS849, read-out: MIC, BAS849
How it was run: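 Using broth microdilution, MIC endpoints (μg/mL) mark where visible growth no longer appears; the panel spans sensitive and control Gram-negative strains plus a Gram-positive strain.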

E. coli LZ3111 = experiment: Antibacterial activity, MIC, quinolone resistant strain (Table 2); assay type: cell-based; details: Escherichia coli, LZ3111, read-out: MIC LZ3111
How it was run: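 Growth inhibition assessed by serial drug dilution in broth; endpoint was absence of macroscopically visible growth, reported as MIC, μg/mL.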

[3] = system: Pseudomonas aeruginosa (P. aeruginosa) 27853; experiment: Antibacterial activity, MIC (Table 5); assay type: cell-based; details: P. aeruginosa 27853, read-out: MIC, 27853
How it was run: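 Using a microbroth dilution format, the minimum inhibitory concentration was recorded as the lowest tested concentration that stopped visible bacterial growth, expressed in μg/mL.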

[4] = system: Acinetobacter baumannii (A. baumannii) BAA747; experiment: Antibacterial activity, MIC (Table 4); assay type: cell-based; details: A. baumannii BAA747, read-out: MIC, BAA747
How it was run: as §1

[5] = system: Klebsiella pneumoniae (K. pneumoniae) 35657; experiment: Antibacterial activity, MIC (Table 4); assay type: cell-based; details: K. pneumoniae 35657, read-out: MIC, 35657
How it was run: as §1

E. coli 25922 = experiment: Antibacterial activity, microbroth dilution MIC (Table 1); assay type: cell-based, Escherichia coli; details: Escherichia coli; microbroth dilution; control Gram-negative E. coli 25922 strain; read-out: MIC, 25922
How it was run: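 Values are MICs (μg/mL): the smallest drug amount at which macroscopically visible bacterial growth is absent under assay conditions, from a microdilution method in broth.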

Measured: MIC

CCc1c(-c2ccc3c(c2)cc2n3CC(N(C)C)C2)[nH]c(=O)c(C(=O)O)c1O.Cl (stereo not drawn) [Cpd 418, 6-(2-(dimethylamino)-2,3-dihydro-1H-pyrrolo[1,2-a]indol-7-yl)-5-ethyl-4-hydroxy-2-oxo-1,2-dihydropyridine-3-carboxylic acid hydrochloride]
12.5 to 150 µg/mL: K. pneumoniae MXX1232 | [1] | [3]
< 1 µg/mL: E. coli LZ3111
3.5 to 12.5 µg/mL: all other assays above

CCc1c(-c2ccc3c(c2)cc2n3CC(N(C)CC)C2)[nH]c(=O)c(C(=O)O)c1O (stereo not drawn) [Cpd 419, 5-ethyl-6-(2-(ethyl(methyl)amino)-2,3-dihydro-1H-pyrrolo[1,2-a]indol-7-yl)-4-hydroxy-2-oxo-1,2-dihydropyridine-3-carboxylic acid]
1 to 3.5 µg/mL: E. coli LZ3111
12.5 to 150 µg/mL: K. pneumoniae MXX1232 | [3]
< 1 µg/mL: [2]
3.5 to 12.5 µg/mL: all other assays above

CCCN(C)C1Cc2cc3cc(-c4[nH]c(=O)c(C(=O)O)c(O)c4CC)ccc3n2C1 (stereo not drawn) [Cpd 420, 5-ethyl-4-hydroxy-6-(2-(methyl(propyl)amino)-2,3-dihydro-1H-pyrrolo[1,2-a]indol-7-yl)-2-oxo-1,2-dihydropyridine-3-carboxylic acid]
< 1 µg/mL: [2]
3.5 to 12.5 µg/mL: A. baumannii MXX2240 | [1] | E. coli LZ3111 | E. coli 25922
12.5 to 150 µg/mL: all other assays above

Cc1c(-c2ccc3cc[nH]c3c2)[nH]c(=O)c(C(=O)O)c1O [Cpd 424, 4-hydroxy-6-(1H-indol-6-yl)-5-methyl-2-oxo-1,2-dihydropyridine-3-carboxylic acid]
3.5 to 12.5 µg/mL: [1] | [2]
< 1 µg/mL: A. baumannii MXX2240 | E. coli LZ3111
12.5 to 150 µg/mL: all other assays above

CCc1c(-c2ccc3[nH]ccc3c2)[nH]c(=O)c(C(=O)O)c1O [Cpd 425, 5-ethyl-4-hydroxy-6-(1H-indol-5-yl)-2-oxo-1,2-dihydropyridine-3-carboxylic acid]
3.5 to 12.5 µg/mL: [1] | [4]
< 1 µg/mL: A. baumannii MXX2240 | [2]
12.5 to 150 µg/mL: K. pneumoniae MXX1232 | [3]
1 to 3.5 µg/mL: all other assays above

Cc1c(-c2ccc3[nH]ccc3c2)[nH]c(=O)c(C(=O)O)c1O [Cpd 426, 4-hydroxy-6-(1H-indol-5-yl)-5-methyl-2-oxo-1,2-dihydropyridine-3-carboxylic acid]
< 1 µg/mL: A. baumannii MXX2240 | E. coli LZ3111
3.5 to 12.5 µg/mL: [2]
12.5 to 150 µg/mL: all other assays above

Cc1c(-c2ccc3c(c2)CC(=O)N3)[nH]c(=O)c(C(=O)O)c1O [Cpd 427, 4-hydroxy-5-methyl-2-oxo-6-(2-oxoindolin-5-yl)-1,2-dihydropyridine-3-carboxylic acid]
12.5 to 150 µg/mL: all assays above

CCc1c(-c2ccc3cc(N(C)C)ccc3c2)[nH]c(=O)c(C(=O)O)c1O [Cpd 428, 6-(6-(dimethylamino)naphthalen-2-yl)-5-ethyl-4-hydroxy-2-oxo-1,2-dihydropyridine-3-carboxylic acid]
< 1 µg/mL: [1] | [2]
12.5 to 150 µg/mL: all other assays above

CCc1c(-c2ccc3cc(C)cn3c2)[nH]c(=O)c(C(=O)O)c1O [Cpd 429, 5-ethyl-4-hydroxy-6-(2-methylindolizin-6-yl)-2-oxo-1,2-dihydropyridine-3-carboxylic acid]
12.5 to 150 µg/mL: all assays above

CCc1c(-c2cnc3cc[nH]c3c2)[nH]c(=O)c(C(=O)O)c1O [Cpd 430, 5-ethyl-4-hydroxy-2-oxo-6-(1H-pyrrolo[3,2-b]pyridin-6-yl)-1,2-dihydropyridine-3-carboxylic acid]
12.5 to 150 µg/mL: all assays above

Cc1c(-c2cnc3cc[nH]c3c2)[nH]c(=O)c(C(=O)O)c1O [Cpd 431, 4-hydroxy-5-methyl-2-oxo-6-(1H-pyrrolo[3,2-b]pyridin-6-yl)-1,2-dihydropyridine-3-carboxylic acid]
12.5 to 150 µg/mL: all assays above

CCc1c(-c2ccc3c(c2)[nH]c2ccccc23)[nH]c(=O)c(C(=O)O)c1O [Cpd 432, 6-(9H-carbazol-2-yl)-5-ethyl-4-hydroxy-2-oxo-1,2-dihydropyridine-3-carboxylic acid]
1 to 3.5 µg/mL: [4]
3.5 to 12.5 µg/mL: [5] | E. coli 25922
< 1 µg/mL: [1] | [2]
12.5 to 150 µg/mL: all other assays above

CCc1c(-c2ccc3cc[nH]c3n2)[nH]c(=O)c(C(=O)O)c1O [Cpd 433, 5-ethyl-4-hydroxy-2-oxo-6-(1H-pyrrolo[2,3-b]pyridin-6-yl)-1,2-dihydropyridine-3-carboxylic acid]
< 1 µg/mL: [2]
3.5 to 12.5 µg/mL: [4] | [5]
12.5 to 150 µg/mL: all other assays above

Cc1c(-c2ccc3cc[nH]c3n2)[nH]c(=O)c(C(=O)O)c1O [Cpd 434, 4-hydroxy-5-methyl-2-oxo-6-(1H-pyrrolo[2,3-b]pyridin-6-yl)-1,2-dihydropyridine-3-carboxylic acid]
12.5 to 150 µg/mL: all assays above

CCc1c(-c2ccc3c(ccn3-c3ccccc3)c2)[nH]c(=O)c(C(=O)O)c1O [Cpd 435, 5-ethyl-4-hydroxy-2-oxo-6-(1-phenyl-1H-indol-5-yl)-1,2-dihydropyridine-3-carboxylic acid]
< 1 µg/mL: [1] | [2]
12.5 to 150 µg/mL: all other assays above
